Source: PubChem BioAssay (NCI)
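Each compound was tested at five concentrations against cells in 96-well plates for 48 hours. GI50: concentration for 50% inhibition of growth. TGI denotes the concentration required for complete inhibition of growth.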

Assays:
Experiment in all cases: NCI anticancer screen, dose series, 48 h
DU-145 prostate = tested on: DU-145 prostate
SK-MEL-28 melanoma = tested on: SK-MEL-28 melanoma
ACHN renal = tested on: ACHN renal
MCF7 breast = tested on: MCF7 breast
BT-549 breast = tested on: BT-549 breast
SF-268 CNS = tested on: SF-268 CNS
HCT-116 colon = tested on: HCT-116 colon
HOP-62 NSCLC = tested on: HOP-62 NSCLC
OVCAR-8 ovarian = tested on: OVCAR-8 ovarian
NCI-H226 lung = tested on: NCI-H226 lung
TK-10 renal = tested on: TK-10 renal
A498 renal = tested on: A498 renal
COLO 205 colon = tested on: COLO 205 colon
HCC-2998 colon = tested on: HCC-2998 colon
HT29 colon = tested on: HT29 colon
IGROV1 ovarian = tested on: IGROV1 ovarian
HL-60(TB) leukemia = tested on: HL-60(TB) leukemia
OVCAR-5 ovarian = tested on: OVCAR-5 ovarian
NCI-H460 lung = tested on: NCI-H460 lung
NCI-H522 lung = tested on: NCI-H522 lung
M14 melanoma = tested on: M14 melanoma
SK-MEL-2 melanoma = tested on: SK-MEL-2 melanoma
T-47D breast = tested on: T-47D breast
SF-539 CNS = tested on: SF-539 CNS
PC-3 prostate = tested on: PC-3 prostate
LOX IMVI melanoma = tested on: LOX IMVI melanoma
CCRF-CEM leukemia = tested on: CCRF-CEM leukemia
HOP-92 NSCLC = tested on: HOP-92 NSCLC
MALME-3M melanoma = tested on: MALME-3M melanoma
SN12C renal = tested on: SN12C renal
U251 CNS = tested on: U251 CNS
SNB-75 CNS = tested on: SNB-75 CNS
OVCAR-3 ovarian = tested on: OVCAR-3 ovarian
UACC-257 melanoma = tested on: UACC-257 melanoma
SK-OV-3 ovarian = tested on: SK-OV-3 ovarian
UACC-62 melanoma = tested on: UACC-62 melanoma
K-562 leukemia = tested on: K-562 leukemia
SNB-19 CNS = tested on: SNB-19 CNS
NCI/ADR-RES ovarian = tested on: NCI/ADR-RES ovarian
MDA-MB-231 breast = tested on: MDA-MB-231 breast
HS 578T breast = tested on: HS 578T breast
HCT-15 colon = tested on: HCT-15 colon
OVCAR-4 ovarian = tested on: OVCAR-4 ovarian
A549 NSCLC = tested on: A549 NSCLC
CAKI-1 renal = tested on: CAKI-1 renal
SK-MEL-5 melanoma = tested on: SK-MEL-5 melanoma
UO-31 renal = tested on: UO-31 renal
SF-295 CNS = tested on: SF-295 CNS
SR leukemia = tested on: SR leukemia
786-0 renal = tested on: 786-0 renal
EKVX NSCLC = tested on: EKVX NSCLC
RPMI-8226 leukemia = tested on: RPMI-8226 leukemia
MOLT-4 leukemia = tested on: MOLT-4 leukemia
NCI-H23 lung = tested on: NCI-H23 lung
KM12 colon = tested on: KM12 colon

Q: Which results are given for `COc1cc(/C=C/C(=O)c2ccccc2O)ccc1OCCCOc1cc2c(cc1OC)C(=O)N1CCC[C@H]1C=N2`?
A: GI50 (DU-145 prostate): 35.1 nM; TGI (DU-145 prostate): 452 nM; GI50 (SK-MEL-28 melanoma): 47.6 nM; TGI (SK-MEL-28 melanoma): 109 nM; GI50 (ACHN renal): 71 nM; TGI (ACHN renal): 818 nM; GI50 (MCF7 breast): 42.6 nM; TGI (MCF7 breast): > 36900 nM; GI50 (BT-549 breast): 17.9 nM; TGI (BT-549 breast): 47.6 nM; GI50 (SF-268 CNS): 24.7 nM; TGI (SF-268 CNS): 64 nM; GI50 (HCT-116 colon): 33.2 nM; TGI (HCT-116 colon): 1570 nM; GI50 (HOP-62 NSCLC): 39.2 nM; TGI (HOP-62 NSCLC): 13100 nM; GI50 (OVCAR-8 ovarian): 75.9 nM; TGI (OVCAR-8 ovarian): 13500 nM; GI50 (NCI-H226 lung): 181 nM; TGI (NCI-H226 lung): 541 nM; GI50 (TK-10 renal): 79.4 nM; TGI (TK-10 renal): 1620 nM; GI50 (A498 renal): 47.9 nM; TGI (A498 renal): 319 nM; GI50 (COLO 205 colon): 34.8 nM; TGI (COLO 205 colon): 144 nM; GI50 (HCC-2998 colon): 138 nM; TGI (HCC-2998 colon): 433 nM; GI50 (HT29 colon): 34.4 nM; TGI (HT29 colon): > 100000 nM; GI50 (IGROV1 ovarian): 25.5 nM; TGI (IGROV1 ovarian): 163 nM; GI50 (HL-60(TB) leukemia): 51.5 nM; TGI (HL-60(TB) leukemia): 161 nM; GI50 (OVCAR-5 ovarian): 35.4 nM; TGI (OVCAR-5 ovarian): 1160 nM; GI50 (NCI-H460 lung): 51.1 nM; TGI (NCI-H460 lung): 11100 nM; GI50 (NCI-H522 lung): 66.2 nM; TGI (NCI-H522 lung): 453 nM; GI50 (M14 melanoma): 40.1 nM; TGI (M14 melanoma): 172 nM; GI50 (SK-MEL-2 melanoma): 99.9 nM; TGI (SK-MEL-2 melanoma): 392 nM; GI50 (T-47D breast): 152 nM; GI50 (SF-539 CNS): 35.9 nM; TGI (SF-539 CNS): 118 nM; GI50 (PC-3 prostate): 54.1 nM; TGI (PC-3 prostate): 7510 nM; GI50 (LOX IMVI melanoma): 20.4 nM; TGI (LOX IMVI melanoma): 48.9 nM; GI50 (CCRF-CEM leukemia): 27 nM; TGI (CCRF-CEM leukemia): 94 nM; GI50 (HOP-92 NSCLC): 49.9 nM; TGI (HOP-92 NSCLC): 990 nM; GI50 (MALME-3M melanoma): 78.7 nM; TGI (MALME-3M melanoma): 318 nM; GI50 (SN12C renal): 52.1 nM; TGI (SN12C renal): 1300 nM; GI50 (U251 CNS): 22.6 nM; TGI (U251 CNS): 51.1 nM; GI50 (SNB-75 CNS): 46.8 nM; TGI (SNB-75 CNS): 222 nM; GI50 (OVCAR-3 ovarian): 28.9 nM; TGI (OVCAR-3 ovarian): 124 nM; GI50 (UACC-257 melanoma): 158 nM; TGI (UACC-257 melanoma): 527 nM; GI50 (SK-OV-3 ovarian): 316 nM; TGI (SK-OV-3 ovarian): 3820 nM; GI50 (UACC-62 melanoma): 38.8 nM; TGI (UACC-62 melanoma): 102 nM; GI50 (K-562 leukemia): 29.7 nM; TGI (K-562 leukemia): 18200 nM; GI50 (SNB-19 CNS): 193 nM; GI50 (NCI/ADR-RES ovarian): 345 nM; TGI (NCI/ADR-RES ovarian): 16800 nM; GI50 (MDA-MB-231 breast): 56.4 nM; TGI (MDA-MB-231 breast): 335 nM; GI50 (HS 578T breast): 54 nM; TGI (HS 578T breast): 284 nM; GI50 (HCT-15 colon): 255 nM; TGI (HCT-15 colon): 1050 nM; GI50 (OVCAR-4 ovarian): 116 nM; TGI (OVCAR-4 ovarian): 15200 nM; GI50 (A549 NSCLC): 31.5 nM; TGI (A549 NSCLC): 1240 nM; GI50 (CAKI-1 renal): 40.3 nM; TGI (CAKI-1 renal): 313 nM; GI50 (SK-MEL-5 melanoma): 57.7 nM; TGI (SK-MEL-5 melanoma): 167 nM; GI50 (UO-31 renal): 81.2 nM; TGI (UO-31 renal): 771 nM; GI50 (SF-295 CNS): 28.1 nM; TGI (SF-295 CNS): 89.5 nM; GI50 (SR leukemia): 18.4 nM; TGI (SR leukemia): 52.3 nM; GI50 (786-0 renal): 25 nM; TGI (786-0 renal): 1530 nM; GI50 (EKVX NSCLC): 215 nM; TGI (EKVX NSCLC): 955 nM; GI50 (RPMI-8226 leukemia): 28.2 nM; TGI (RPMI-8226 leukemia): 75.8 nM; GI50 (MOLT-4 leukemia): 17 nM; TGI (MOLT-4 leukemia): 57.2 nM; GI50 (NCI-H23 lung): 36.3 nM; TGI (NCI-H23 lung): 151 nM; GI50 (KM12 colon): 36.9 nM; TGI (KM12 colon): 263 nM
